Here are results for 17 compounds from PMC9693510, “High-Throughput Metabolic Soft-Spot Identification in Liver Microsomes by LC/UV/MS: Application of a Single Variable Incubation Time Approach” (Molecules, 2022).

The nature of data set [1]: Metabolic soft-spot determination in HLM using LC/UV/Qtrap. How it is done:
A specific incubation time for the individual test compounds was set up for 1–20 min based on their metabolic stability T1/2 values (Table 1). An LC/UV/Qtrap system with an Ultimate XB-C18 column (100 mm × 2.1 mm, 1.8 µm, Welch, China) was employed for quantitative and qualitative analyses of metabolites of the test compounds in HLM incubations. The mobile phases were the same as the metabolic stability assay, and the flow rate was 0.3 mL/min. […] The mass spectrometer was operated in positive ion mode using a successive multiple ion monitoring-triggered enhanced product ion scan (MIM-EPI) mode. […] All the ion source parameters were set as the following values: CUR: 30 psi; IS: 5500 V; TEM: 500 °C; GS1 and GS2: 50 psi; DP: 70 V. A criterion for the data-dependent EPI was set for the three most intense ions in each dynamic background subtraction (DBS) survey scan spectrum with an intensity threshold of 500 cps. The CE was set to 5 eV for the survey scan and 40 eV with CE spread (CES) of 15 eV for the dependent EPI scan. The scan speed for ER and EPI were 250 amu/s and 20,000 amu/s, respectively. LC/UV profiles of individual incubation were generated to reveal major metabolites using wavelengths on the λmax of parent compounds (Table S1). Protonated molecules of major metabolites were determined by matching major metabolite peak(s) in LC/UV profiles to similar ion peaks shown in LC/MS profiles from the MIM scanning or data processing. EIC, PIF, and NLF tools on PeakView SoftwareTM 1.2 (AB SCIEX, Foster City, CA, USA) were used to process LC/MS and LC/MS2 datasets. MS/MS spectral data of major metabolites were retrieved from corresponding LC/MS2 data based on their protonated molecules. The structural characterization of major metabolites was carried based on interpretation of their MS/MS spectra and biotransformation knowledge.

Another data set is described as follows: in vitro. Particulars: human, microsomes, pH 7.4.
The nature of data set [2]: Metabolic soft-spot determination in HLM using LC/UV/Q-TOF (Triple TOF). Particulars: 8 min.
Description: (§1) Supernatants of incubation samples were dried under nitrogen and then reconstituted in 100 μL of 5% acetonitrile in water prior to analysis using LC/UV/HRMS.
(§2) An LC/MS system consisted of an LC instrument (Shimadzu HPLC with a photodiode array detector (PDA), Shimadzu, Kyoto, Japan) and TripleTOF (AB 4600, Sciex, Framingham, MA, USA) was employed. LC separation was carried out using a Phenomenex Kinetex-C18 (2.1 × 150 mm, 2.6 μm, CA) and a mobile phase comprised of 0.1% formic acid (v/v) in water (solvent A) and 0.1% formic acid in acetonitrile (v/v) (solvent B). The total running time was 5 min, and the flow rate was 0.4 mL/min. […] The mass spectrometer was operating in the positive electrospray ionization mode in the m/z range of 100–1000. Dynamic background subtraction (DBS) was employed to record full-scan MS and MS/MS data simultaneously. Two approaches were used for finding and confirming protonated molecules of major metabolites. One approach was to directly get the information by reviewing full-scan MS spectra of peaks in unprocessed LC/MS dataset, which had very similar LC retention times and peak shapes to those of major metabolites shown in corresponding LC/UV profiles.
The conditions of data set [3]: human, 3 µM, pH 7.4; for Major metabolites relative abundance (% of total UV peak areas of drug and its metabolites): 60 min.
Description: as §1, §2
The conditions of data set [4]: 0.5 µM, HLM 0.5 mg/mL, 60 min, LC/MS analysis of the parent drug; cited from earlier work.
A short description of data set [5]: Determination of metabolic stability in HLM. Particulars: human, microsomes, pH 7.4.
The conditions of data set [6]: HLM, 10 µM, 60 min, cited from earlier work.

Like-named read-outs stand apart in the source and are kept apart here.

As to `CCNCc1cc(Nc2ccnc3cc(Cl)ccc23)ccc1O` [AM1], the “Major metabolites relative abundance (% of total UV peak areas of drug and its metabolites)” value in data set [1] (human, 1 min, 3 µM, pH 7.4) is “Deethylation: AM1 (26.5%)”.

For the compound `CCN(CC)Cc1cc(Nc2ccnc3cc(Cl)ccc23)ccc1O` [Amodiaquine, amodiaquine], in data set [1] (human, 1 min, 3 µM, pH 7.4), the “Disappearance of the parent” value is 23%; the “The parent drug relative abundance (% of total UV peak areas of drug and its metabolites)” value is “Amodiaquine (77.0%)”. In “in vitro”, this compound displayed a half-life at 0.5 µM of 1.3 min.

Regarding `O=C1CC2(CCC(O)C2)CC(=O)N1CCCCN1CCN(c2ncccn2)CC1` (centres unmarked) [B3], the “Major metabolites relative abundance (% of total UV peak areas of drug and its metabolites)” value in data set [2] (buspirone 3 μM) amounted to 12.1%.

Consider `O=C1CC2(CCCC2)C(O)C(=O)N1CCCCN1CCN(c2ncccn2)CC1` (centres unmarked) [B10], for which, in data set [2] (buspirone 3 μM), the “Major metabolites relative abundance (% of total UV peak areas of drug and its metabolites)” value is on record as 16.5%.

On to `O=C1CC2(CCCC2)CC(=O)N1CCCCN1CCN(c2ncc(O)cn2)CC1` [B12], for which the “Major metabolites relative abundance (% of total UV peak areas of drug and its metabolites)” value in data set [2] (buspirone 3 μM) worked out at 5.2%.

With `O=C1CC2(CCCC2)CC(=O)N1CCCC[N+]1([O-])CCN(c2ncccn2)CC1` [B15], in data set [2] (buspirone 3 μM), the “Major metabolites relative abundance (% of total UV peak areas of drug and its metabolites)” value was found to be 7.1%.

Turning to `O=C1CC2(CCCC2)CC(=O)N1CCCCN1CCN(c2ncccn2)CC1` [Buspirone, buspirone, reference compound], in data set [3] (8 min), the “The parent drug relative abundance (% of total UV peak areas of drug and its metabolites)” value is given as “Buspirone (59.1%)”. Further, in data set [4], the “T1/2 in HLM” value is “Buspirone ^d (7.6 min)”.

On to `COc1ccc2c(c1)[C@]13CCCC[C@@H]1[C@H](C2)N(C)CC3` [Dextromethorphan, dextromethorphan], for which the “The parent drug relative abundance (% of total UV peak areas of drug and its metabolites)” value is “Dextromethorphan (75.5%)” in data set [1] (dextromethorphan 3 μM, 30 min, HLM) and 75.5% in data set [1] (dextromethorphan 3 μM, 30 min, HLM, listed as dextromethorphan). The half-life at 0.5 µM in data set [5] was 24 min.

Turning to `CN1CCN2c3ncc(O)cc3Cc3ccccc3C2C1` (centres unmarked) [M1], the “Major metabolites relative abundance (% of total UV peak areas of drug and its metabolites)” value in data set [3] turned out to be 10.7%.

For `c1ccc2c(c1)Cc1cccnc1N1CCNCC21` (centres unmarked) [M2], the “Major metabolites relative abundance (% of total UV peak areas of drug and its metabolites)” value in data set [3] turned out to be 8.1%.

`OCc1ncc2n1-c1ccc(Cl)cc1C(c1ccccc1F)=NC2` [MM2]: the “Major metabolites relative abundance (% of total UV peak areas of drug and its metabolites)” value in data set [1] (midazolam 3 μM, 2 min, HLM) is given as “Mono-oxidation: MM2 (29.0%)”.

`Cc1ncc2n1-c1ccc(Cl)cc1C(c1ccccc1F)=NC2` [Midazolam, midazolam]: the “Disappearance of the parent” value in data set [1] (midazolam 3 μM, 2 min, HLM) is 31%.

Turning to `CNCCCC(C#N)(c1ccc(OC)c(OC)c1)C(C)C` (centres unmarked) [V1], the “Major metabolites relative abundance (% of total UV peak areas of drug and its metabolites)” value in data set [2] (verapamil 5 μM) is reported as 6.1%.

Take `COc1ccc(CCNCCCC(C#N)(c2ccc(OC)c(OC)c2)C(C)C)cc1OC` (centres unmarked) [V5]: the “Major metabolites relative abundance (% of total UV peak areas of drug and its metabolites)” value in data set [2] (verapamil 5 μM) came out at 14.7%.

As to `CNCCCC(C#N)(c1ccc(OC)c(OC)c1)C(C)C` (centres unmarked) [VM2], in data set [1] (human, 4 min, 3 µM, pH 7.4), the “Major metabolites relative abundance (% of total UV peak areas of drug and its metabolites)” value is 8.9%.

For `COc1ccc(CCNCCCC(C#N)(c2ccc(OC)c(OC)c2)C(C)C)cc1OC` (centres unmarked) [VM8], the “Major metabolites relative abundance (% of total UV peak areas of drug and its metabolites)” value in data set [1] (human, 4 min, 3 µM, pH 7.4) is listed as 19.0%.

Turning to `CN(C)CCC1(c2ccccc2)CCc2ccccc2C1=O` (centres unmarked) [nafenodone], the “Disappearance of the parent” value in data set [6] (estimated) is “over 80%”. The “Number of oxidative metabolites formed” value in data set [6] was 26.

As a reminder, the half-life is the time needed for the level to fall by half in the phase considered.
